From publication PMC8632988, “Inhibition of SYK and cSrc kinases can protect bone and cartilage in preclinical models of osteoarthritis and rheumatoid arthritis” (Scientific Reports, 2021)
Where “and” joins values, the source holds several entries; their conditions need not be identical. Equal values may be shown once. Read-outs that look alike come from different tables or passages of the source.

Assays:
Experiment in all cases: Kinase selectivity profile assay
Format in all cases: biochemical
STK38/NDR1 = biological target: T1, STK38/NDR1 (Homo sapiens, UniProt Q15208); conditions: 500 nM; relative to DMSO; read-out: Residual enzymatic activity
T1 construct: purchased Reaction Biology Corporation
In short: (§1)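 Radiometric kinase assay run by a standard protocol. Unbound phosphate was removed by washing filters in phosphoric acid, and product radioactivity gave percent remaining kinase activity versus DMSO vehicle reactions. Run in duplicate.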

MST2/STK3 = biological target: T2, MST2/STK3 (Homo sapiens, UniProt Q13188); conditions: 500 nM; relative to DMSO; read-out: Residual enzymatic activity
T2 construct: purchased Reaction Biology Corporation
In short: as §1

LIMK1 = biological target: T3, LIMK1 (Homo sapiens, UniProt P53667); conditions: for remaining activity at 0.5 µM: 500 nM, relative to DMSO, read-out: Residual enzymatic activity
T3 construct: purchased Reaction Biology Corporation (assay service)
In short: as §1

MAPKAPK5/PRAK = biological target: T4, MAPKAPK5/PRAK (Homo sapiens, UniProt Q8IW41); conditions: 500 nM; relative to DMSO; read-out: Residual enzymatic activity
T4 construct: purchased Reaction Biology Corporation
In short: as §1

PHKg1 = biological target: T5, PHKg1 (Homo sapiens, UniProt Q16816); conditions: 500 nM; relative to DMSO; read-out: Residual enzymatic activity
T5 construct: purchased Reaction Biology Corporation
In short: as §1

CK2a2 = biological target: T6, CK2a2 (Homo sapiens, UniProt P19784); conditions: 500 nM; relative to DMSO; read-out: Residual enzymatic activity
T6 construct: purchased Reaction Biology Corporation
In short: as §1

SSTK/TSSK6 = biological target: T7, SSTK/TSSK6 (Homo sapiens, UniProt Q9BXA6); conditions: 500 nM; relative to DMSO; read-out: Residual enzymatic activity
T7 construct: purchased Reaction Biology Corporation
In short: as §1

TTBK1 = biological target: T8, TTBK1 (Homo sapiens, UniProt Q5TCY1); conditions: 500 nM; relative to DMSO; read-out: Residual enzymatic activity
T8 construct: purchased Reaction Biology Corporation
In short: as §1

RIPK5 = biological target: T9, RIPK5 (Homo sapiens, UniProt Q6XUX3); conditions: 500 nM; relative to DMSO; read-out: Residual enzymatic activity
T9 construct: purchased Reaction Biology Corporation
In short: as §1

PKN1/PRK1 = biological target: T10, PKN1/PRK1 (Homo sapiens, UniProt Q16512); conditions: 500 nM; relative to DMSO; read-out: Residual enzymatic activity
T10 construct: purchased Reaction Biology Corporation
In short: as §1

GRK5 = biological target: T11, GRK5 (Homo sapiens, UniProt P34947); conditions: 500 nM; relative to DMSO; read-out: Residual enzymatic activity
T11 construct: purchased Reaction Biology Corporation
In short: as §1

STK38L/NDR2 = biological target: T12, STK38L/NDR2 (Homo sapiens, UniProt Q9Y2H1); conditions: 500 nM; relative to DMSO; read-out: Residual enzymatic activity
T12 construct: purchased Reaction Biology Corporation
In short: as §1

BMPR2 = biological target: T13, BMPR2 (Homo sapiens, UniProt Q13873); conditions: 500 nM; relative to DMSO; read-out: Residual enzymatic activity
T13 construct: purchased Reaction Biology Corporation
In short: as §1

EPHB2 = biological target: T14, EPHB2 (Homo sapiens, UniProt P29323); conditions: 500 nM, relative to DMSO
T14 construct: purchased Reaction Biology Corporation
In short: as §1

PIM3 = biological target: T15, PIM3 (Homo sapiens, UniProt Q86V86); conditions: 500 nM; relative to DMSO; read-out: Residual enzymatic activity
T15 construct: purchased Reaction Biology Corporation
In short: as §1

ASK1/MAP3K5 = biological target: T16, ASK1/MAP3K5 (Homo sapiens, UniProt Q99683); conditions: 500 nM; relative to DMSO; read-out: Residual enzymatic activity
T16 construct: purchased Reaction Biology Corporation
In short: as §1

LKB1 = biological target: T17, LKB1 (Homo sapiens, UniProt Q15831); conditions: 500 nM; relative to DMSO; read-out: Residual enzymatic activity
T17 construct: purchased Reaction Biology Corporation
In short: as §1

PKCtheta = biological target: T18, PKCtheta (Homo sapiens, UniProt Q04759); conditions: 500 nM; relative to DMSO; read-out: Residual enzymatic activity
T18 construct: purchased Reaction Biology Corporation
In short: as §1

CAMK2d = biological target: T19, CAMK2d (Homo sapiens, UniProt Q13557); conditions: read-out: Residual enzymatic activity
T19 construct: purchased Reaction Biology Corporation
In short: as §1

P38d/MAPK13 = biological target: T20, P38d/MAPK13 (Homo sapiens, UniProt O15264); conditions: 500 nM; relative to DMSO; read-out: Residual enzymatic activity
T20 construct: purchased Reaction Biology Corporation
In short: as §1

IRAK1 = biological target: T21, IRAK1 (Homo sapiens, UniProt P51617); conditions: 500 nM; relative to DMSO; read-out: Residual enzymatic activity
T21 construct: purchased Reaction Biology Corporation
In short: as §1

TAOK3/JIK = biological target: T22, TAOK3/JIK (Homo sapiens, UniProt Q9H2K8); conditions: 500 nM; relative to DMSO; read-out: Residual enzymatic activity
T22 construct: purchased Reaction Biology Corporation
In short: as §1

GLK/MAP4K3 = biological target: T23, GLK/MAP4K3 (Homo sapiens, UniProt Q8IVH8); conditions: 500 nM; relative to DMSO; read-out: Residual enzymatic activity
T23 construct: purchased Reaction Biology Corporation
In short: as §1

TXK = biological target: T24, TXK (Homo sapiens, UniProt P42681); conditions: for remaining activity at 0.5 µM: 500 nM, relative to DMSO, read-out: Residual enzymatic activity
T24 construct: purchased Reaction Biology Corporation (Malvern, PA, USA)
T24 sequence (P42681 1-527): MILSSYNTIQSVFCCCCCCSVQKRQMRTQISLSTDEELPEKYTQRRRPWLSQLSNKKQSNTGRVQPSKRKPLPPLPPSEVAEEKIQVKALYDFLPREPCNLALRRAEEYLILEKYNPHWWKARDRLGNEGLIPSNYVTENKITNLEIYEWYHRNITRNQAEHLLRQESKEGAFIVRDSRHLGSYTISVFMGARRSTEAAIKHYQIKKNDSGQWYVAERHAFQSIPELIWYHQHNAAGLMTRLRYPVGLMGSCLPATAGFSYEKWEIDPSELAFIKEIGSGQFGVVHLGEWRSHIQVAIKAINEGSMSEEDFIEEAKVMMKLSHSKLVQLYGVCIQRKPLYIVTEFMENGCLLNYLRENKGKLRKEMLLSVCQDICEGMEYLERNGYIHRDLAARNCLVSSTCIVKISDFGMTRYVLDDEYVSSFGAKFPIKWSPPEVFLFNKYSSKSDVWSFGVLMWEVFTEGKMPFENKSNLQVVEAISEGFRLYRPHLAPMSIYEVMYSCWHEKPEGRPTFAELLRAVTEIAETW
In short: as §1

NEK3 = biological target: T25, NEK3 (Homo sapiens, UniProt P51956); conditions: 500 nM; relative to DMSO; read-out: Residual enzymatic activity
T25 construct: purchased Reaction Biology Corporation
In short: as §1

RIPK2 = biological target: T26, RIPK2 (Homo sapiens, UniProt O43353); conditions: 500 nM; relative to DMSO; read-out: Residual enzymatic activity
T26 construct: purchased Reaction Biology Corporation
In short: as §1

DYRK3 = biological target: T27, DYRK3 (Homo sapiens, UniProt O43781); conditions: 500 nM; relative to DMSO; read-out: Residual enzymatic activity
T27 construct: purchased Reaction Biology Corporation
In short: as §1

NEK1 = biological target: T28, NEK1 (Homo sapiens, UniProt Q96PY6); conditions: 500 nM; relative to DMSO; read-out: Residual enzymatic activity
T28 construct: purchased Reaction Biology Corporation
In short: as §1

GRK7 = biological target: T29, GRK7 (Homo sapiens, UniProt Q8WTQ7); conditions: 500 nM; relative to DMSO; read-out: Residual enzymatic activity
T29 construct: purchased Reaction Biology Corporation
In short: as §1

GCK/MAP4K2 = biological target: T30, GCK/MAP4K2 (Homo sapiens, UniProt Q12851); conditions: 500 nM; relative to DMSO; read-out: Residual enzymatic activity
T30 construct: purchased Reaction Biology Corporation
In short: as §1

TRKB = biological target: T31, TRKB (Homo sapiens, UniProt Q16620); conditions: 500 nM; relative to DMSO; read-out: Residual enzymatic activity
T31 construct: purchased Reaction Biology Corporation
In short: as §1

Haspin = biological target: T32, Haspin (Homo sapiens, UniProt Q8TF76); conditions: 500 nM; relative to DMSO; read-out: Residual enzymatic activity
T32 construct: purchased Reaction Biology Corporation
In short: as §1

[1] = 10-dose mode, threefold serial dilution from 10 μM

T3 sequence (P53667 whole entry): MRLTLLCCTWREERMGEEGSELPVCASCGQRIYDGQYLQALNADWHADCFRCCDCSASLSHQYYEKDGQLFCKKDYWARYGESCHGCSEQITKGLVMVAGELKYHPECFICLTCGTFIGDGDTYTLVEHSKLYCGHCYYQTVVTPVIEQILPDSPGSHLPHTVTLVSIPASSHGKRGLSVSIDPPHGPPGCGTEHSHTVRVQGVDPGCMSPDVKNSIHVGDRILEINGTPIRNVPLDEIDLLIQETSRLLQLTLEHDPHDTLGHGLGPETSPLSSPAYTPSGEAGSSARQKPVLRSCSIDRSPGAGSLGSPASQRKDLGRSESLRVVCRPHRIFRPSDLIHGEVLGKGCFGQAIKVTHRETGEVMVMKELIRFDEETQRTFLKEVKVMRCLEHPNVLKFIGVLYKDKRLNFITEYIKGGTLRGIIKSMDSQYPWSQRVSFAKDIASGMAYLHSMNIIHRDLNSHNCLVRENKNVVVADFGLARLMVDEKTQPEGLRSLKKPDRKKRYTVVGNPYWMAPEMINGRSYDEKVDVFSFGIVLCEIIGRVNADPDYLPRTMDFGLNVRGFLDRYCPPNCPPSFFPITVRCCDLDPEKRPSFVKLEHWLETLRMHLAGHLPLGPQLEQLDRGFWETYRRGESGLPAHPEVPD
T7 sequence (Q9BXA6 whole entry): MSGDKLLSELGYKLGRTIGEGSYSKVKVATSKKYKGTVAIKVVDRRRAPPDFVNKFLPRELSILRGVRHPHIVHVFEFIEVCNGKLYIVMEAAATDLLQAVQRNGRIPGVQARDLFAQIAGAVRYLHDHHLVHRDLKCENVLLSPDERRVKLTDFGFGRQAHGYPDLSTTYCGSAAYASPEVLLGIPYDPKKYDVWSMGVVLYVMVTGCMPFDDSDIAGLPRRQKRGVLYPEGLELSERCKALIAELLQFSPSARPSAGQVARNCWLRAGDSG
T30 sequence (Q12851 whole entry): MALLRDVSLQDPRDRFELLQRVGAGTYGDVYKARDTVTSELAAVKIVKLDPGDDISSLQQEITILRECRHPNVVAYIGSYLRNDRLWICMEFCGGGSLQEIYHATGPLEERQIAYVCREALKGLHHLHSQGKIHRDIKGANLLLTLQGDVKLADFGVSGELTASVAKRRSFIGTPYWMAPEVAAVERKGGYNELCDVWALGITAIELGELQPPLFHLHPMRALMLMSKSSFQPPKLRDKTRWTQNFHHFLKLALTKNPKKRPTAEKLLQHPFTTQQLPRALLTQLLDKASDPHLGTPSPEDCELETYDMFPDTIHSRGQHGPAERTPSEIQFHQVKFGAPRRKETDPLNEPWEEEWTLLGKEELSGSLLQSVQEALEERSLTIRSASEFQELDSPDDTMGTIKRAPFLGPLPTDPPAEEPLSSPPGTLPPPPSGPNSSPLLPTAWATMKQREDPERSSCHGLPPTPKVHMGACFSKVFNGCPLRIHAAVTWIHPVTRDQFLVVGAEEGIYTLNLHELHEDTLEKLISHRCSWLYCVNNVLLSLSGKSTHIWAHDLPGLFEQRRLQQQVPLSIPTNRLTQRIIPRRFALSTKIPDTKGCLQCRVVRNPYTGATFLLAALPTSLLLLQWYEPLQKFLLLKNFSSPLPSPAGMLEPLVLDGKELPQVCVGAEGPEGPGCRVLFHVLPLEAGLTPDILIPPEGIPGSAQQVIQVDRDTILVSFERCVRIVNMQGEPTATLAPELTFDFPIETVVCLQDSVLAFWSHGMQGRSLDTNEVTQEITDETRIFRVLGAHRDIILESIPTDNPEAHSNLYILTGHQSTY
T20 sequence (O15264 whole entry): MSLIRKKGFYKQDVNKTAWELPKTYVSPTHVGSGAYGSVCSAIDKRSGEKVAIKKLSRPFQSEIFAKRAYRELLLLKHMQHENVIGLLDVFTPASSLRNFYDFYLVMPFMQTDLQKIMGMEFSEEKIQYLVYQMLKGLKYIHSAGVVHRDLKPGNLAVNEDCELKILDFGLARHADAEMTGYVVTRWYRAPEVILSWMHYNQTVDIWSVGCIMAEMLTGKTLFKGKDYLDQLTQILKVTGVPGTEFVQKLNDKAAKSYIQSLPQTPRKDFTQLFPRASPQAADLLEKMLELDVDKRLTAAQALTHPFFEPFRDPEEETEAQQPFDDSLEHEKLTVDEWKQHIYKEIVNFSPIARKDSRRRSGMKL
T2 sequence (Q13188 whole entry): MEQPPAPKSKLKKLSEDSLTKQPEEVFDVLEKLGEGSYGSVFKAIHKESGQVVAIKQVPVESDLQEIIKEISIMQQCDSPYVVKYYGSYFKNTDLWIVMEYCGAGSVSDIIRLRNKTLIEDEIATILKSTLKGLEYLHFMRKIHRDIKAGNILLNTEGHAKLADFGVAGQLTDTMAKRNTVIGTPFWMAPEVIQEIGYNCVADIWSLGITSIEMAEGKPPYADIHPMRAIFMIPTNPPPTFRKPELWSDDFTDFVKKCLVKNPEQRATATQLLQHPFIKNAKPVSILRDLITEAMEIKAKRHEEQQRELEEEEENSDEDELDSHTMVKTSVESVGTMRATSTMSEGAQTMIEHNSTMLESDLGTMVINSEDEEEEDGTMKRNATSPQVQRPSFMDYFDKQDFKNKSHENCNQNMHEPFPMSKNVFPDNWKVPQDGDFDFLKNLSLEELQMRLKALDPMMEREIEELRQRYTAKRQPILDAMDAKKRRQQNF
T25 sequence (P51956 whole entry): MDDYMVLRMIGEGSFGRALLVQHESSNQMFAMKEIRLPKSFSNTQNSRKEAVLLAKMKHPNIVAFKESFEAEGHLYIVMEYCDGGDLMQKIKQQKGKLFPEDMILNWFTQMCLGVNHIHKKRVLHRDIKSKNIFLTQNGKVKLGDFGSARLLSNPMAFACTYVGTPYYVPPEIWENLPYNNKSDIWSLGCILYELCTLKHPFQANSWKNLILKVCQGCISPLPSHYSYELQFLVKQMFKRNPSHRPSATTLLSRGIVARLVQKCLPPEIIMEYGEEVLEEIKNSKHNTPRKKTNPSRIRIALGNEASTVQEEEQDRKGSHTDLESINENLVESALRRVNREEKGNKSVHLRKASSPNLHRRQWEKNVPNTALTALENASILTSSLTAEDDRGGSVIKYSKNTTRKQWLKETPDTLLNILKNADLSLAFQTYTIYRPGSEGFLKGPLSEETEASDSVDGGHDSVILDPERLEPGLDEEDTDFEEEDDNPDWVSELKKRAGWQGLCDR
T16 sequence (Q99683 whole entry): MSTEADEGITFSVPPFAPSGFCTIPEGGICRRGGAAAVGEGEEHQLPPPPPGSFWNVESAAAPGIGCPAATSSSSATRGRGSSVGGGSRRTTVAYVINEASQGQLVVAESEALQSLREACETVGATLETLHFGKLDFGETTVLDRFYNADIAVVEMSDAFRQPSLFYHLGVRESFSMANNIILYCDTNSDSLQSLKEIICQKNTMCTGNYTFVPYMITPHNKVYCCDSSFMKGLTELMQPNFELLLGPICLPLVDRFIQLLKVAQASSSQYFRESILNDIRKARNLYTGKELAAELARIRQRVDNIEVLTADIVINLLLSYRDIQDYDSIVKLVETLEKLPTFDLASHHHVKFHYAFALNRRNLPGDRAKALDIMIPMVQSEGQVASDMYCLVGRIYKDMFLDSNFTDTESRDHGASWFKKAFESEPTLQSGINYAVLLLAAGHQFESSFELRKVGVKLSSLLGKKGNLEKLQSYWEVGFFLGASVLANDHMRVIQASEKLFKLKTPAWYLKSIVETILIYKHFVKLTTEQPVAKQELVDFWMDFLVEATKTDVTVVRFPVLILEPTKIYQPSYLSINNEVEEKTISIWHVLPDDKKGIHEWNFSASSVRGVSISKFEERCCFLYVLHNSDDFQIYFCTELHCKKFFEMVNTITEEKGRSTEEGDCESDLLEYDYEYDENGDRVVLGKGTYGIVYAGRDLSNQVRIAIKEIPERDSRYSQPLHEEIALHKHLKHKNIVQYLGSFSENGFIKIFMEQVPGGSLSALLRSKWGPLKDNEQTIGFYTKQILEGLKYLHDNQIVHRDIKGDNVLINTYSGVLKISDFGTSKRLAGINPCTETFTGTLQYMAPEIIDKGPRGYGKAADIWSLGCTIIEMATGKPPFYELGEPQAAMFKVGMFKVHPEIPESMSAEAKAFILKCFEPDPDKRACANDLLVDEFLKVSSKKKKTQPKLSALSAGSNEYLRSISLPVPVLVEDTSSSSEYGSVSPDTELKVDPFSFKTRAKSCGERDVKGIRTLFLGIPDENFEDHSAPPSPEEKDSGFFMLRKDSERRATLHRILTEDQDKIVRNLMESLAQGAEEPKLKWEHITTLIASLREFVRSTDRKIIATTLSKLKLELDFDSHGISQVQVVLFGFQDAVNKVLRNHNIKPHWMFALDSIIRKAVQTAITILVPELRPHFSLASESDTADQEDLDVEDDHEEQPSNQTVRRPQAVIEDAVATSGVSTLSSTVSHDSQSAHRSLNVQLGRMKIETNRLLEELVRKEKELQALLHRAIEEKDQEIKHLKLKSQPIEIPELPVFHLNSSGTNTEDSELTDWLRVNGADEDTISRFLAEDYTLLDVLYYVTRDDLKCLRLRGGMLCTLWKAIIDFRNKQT

Structure (SMILES)	remaining activity at 0.5 µM (STK38/NDR1)	remaining activity at 0.5 µM (MST2/STK3)	remaining activity at 0.5 µM (LIMK1)	remaining activity at 0.5 µM (MAPKAPK5/PRAK)	remaining activity at 0.5 µM (PHKg1)	remaining activity at 0.5 µM (CK2a2)	remaining activity at 0.5 µM (SSTK/TSSK6)	remaining activity at 0.5 µM (TTBK1)	remaining activity at 0.5 µM (RIPK5)	remaining activity at 0.5 µM (PKN1/PRK1)	remaining activity at 0.5 µM (GRK5)	remaining activity at 0.5 µM (STK38L/NDR2)	remaining activity at 0.5 µM (BMPR2)	remaining activity at 0.5 µM (PIM3)	remaining activity at 0.5 µM (ASK1/MAP3K5)	remaining activity at 0.5 µM (LKB1)	remaining activity at 0.5 µM (PKCtheta)	remaining activity at 0.5 µM (P38d/MAPK13)	remaining activity at 0.5 µM (IRAK1)	remaining activity at 0.5 µM (TAOK3/JIK)	also measured
COc1cc(Nc2ncnc(Nc3cc4c(cn3)NC(=O)C(C)(C)O4)n2)cc(OC)c1OC [MT-SYK-03]	112%	105%	11.4%	92.3%	97.1%	66%	103%	108%	104%	104%	103%	89.6%	90%	98.8%	102%	101%	102%	119%	74.6%	108%	IC50 (LIMK1; [1]): 45 nM and 44.6 nM; Residual enzymatic activity (EPHB2): 77.7%; remaining activity at 0.5 µM (CAMK2d): 104%; remaining activity at 0.5 µM (GLK/MAP4K3): 94.1%; remaining activity at 0.5 µM (TXK): 35.4%; IC50 (TXK; [1]): 222 nM; remaining activity at 0.5 µM (NEK3): 72%; remaining activity at 0.5 µM (RIPK2): 84.7%; remaining activity at 0.5 µM (DYRK3): 91.6%; remaining activity at 0.5 µM (NEK1): 52.7%; remaining activity at 0.5 µM (GRK7): 99.7%; remaining activity at 0.5 µM (GCK/MAP4K2): 100%; remaining activity at 0.5 µM (TRKB): 92.4%; remaining activity at 0.5 µM (Haspin): 101%
COc1cc(Nc2ncc(F)c(Nc3ccc4c(n3)NC(=O)C(C)(C)O4)n2)cc(OC)c1OC [R406, reference compound]	70.4%	97.9%	7.2%	99.4%	61.5%	21.4%	98.7%	98.5%	100%	62.6%	96.4%	32.1%	71.1%	82.8%	97.1%	69.3%	99.5%	84.7%	13.5%	77.2%	remaining activity at 0.5 µM (EPHB2; read-out: Residual enzymatic activity): 69.5%; remaining activity at 0.5 µM (CAMK2d; 500 nM, relative to DMSO): 98.9%; remaining activity at 0.5 µM (GLK/MAP4K3): 65.8%; remaining activity at 0.5 µM (TXK): 16.3%; remaining activity at 0.5 µM (NEK3): 19.2%; remaining activity at 0.5 µM (RIPK2): 73%; remaining activity at 0.5 µM (DYRK3): 90.6%; remaining activity at 0.5 µM (NEK1): 7%; remaining activity at 0.5 µM (GRK7): 89.6%; remaining activity at 0.5 µM (GCK/MAP4K2): 77.5%; remaining activity at 0.5 µM (TRKB): 28%; remaining activity at 0.5 µM (Haspin): 91.5%
